What all share (format): cell-based
The subject of experiment [1] is S. aureus UC-76 SA-1. In words: in vitro antibacterial activity (MIC), S. aureus. The following applies: Staphylococcus aureus, UC76; strain UC-76 SA-1; MIC = lowest concentration preventing macroscopically visible growth; read-out: in vitro antibacterial activity MIC5 S. aureus UC-76 SA-1. From the text: (§1) The in vitro antibacterial activity of the compounds of the present invention may be assessed by following procedures recommended in (1) National Committee for Clinical Laboratory Standards (January 2003), Methods for dilution antimicrobial tests for bacteria that grow aerobically, Approved Standard (6th ed), M7-A6, NCCLS, Wayne, Pa.; (2) National Committee for Clinical Laboratory Standards (March 2001), Methods for antimicrobial susceptibility testing of anaerobic bacteria, Approved Standard (5th ed), M11-A4, NCCLS, Wayne, Pa.; (3) National Committee for Clinical Laboratory Standards (Jan. 2003), MIC testing supplemental tables, M100-S13 (for use with M7-A6), NCCLS, Wayne, Pa.; and (4) Murray P R, Baron E J, Jorgensen J H, et al. Manual of Clinical Microbiology (8th ed) Washington, D.C.: American Society for Microbiology Press, 2003. The antibacterial activity can be presented in the form of MIC value. The MIC value is the lowest concentration of drug, which prevented macroscopically visible growth under the conditions of the test.

Experiment [2] deals with S. pneumoniae SV1 SP-3. Nature of the experiment: in vitro antibacterial activity (MIC), S. pneumoniae. As to conditions: Streptococcus pneumoniae, SV1SP3; strain SV1 SP-3; MIC = lowest concentration preventing macroscopically visible growth; read-out: in vitro antibacterial activity MIC5 S. pneumoniae SV1 SP-3.
From the text: as §1

The subject of experiment [3] is E. faecalis MGH-2 EF 1-1. In words: in vitro antibacterial activity (MIC), E. faecalis. The following applies: Enterococcus faecalis, MGH2EF11; strain MGH-2 EF 1-1; MIC = lowest concentration preventing macroscopically visible growth; read-out: in vitro antibacterial activity MIC5 E. faecalis MGH-2 EF 1-1.
From the text: as §1

Converted amounts (≈) assume the structure as drawn.

In the case of `CC(=O)NC[C@H]1CN(c2ccc3c(C)noc3c2)C(=O)O1` [Example 1, (S)—N-[3-(3-methyl-benzo[d]isoxazol-6-yl)-2-oxo-oxazolidin-5-ylmethyl]-acetamide], the figures for the MIC in experiment [1], in experiment [2] and in experiment [3] were 2 µg/mL (≈ 6.91 µM), 1 µg/mL (≈ 3.46 µM) and 2 µg/mL (≈ 6.91 µM), respectively.

Take `CCC(=O)NC[C@H]1CN(c2ccc3c(C)noc3c2)C(=O)O1` [Example 2, (S)—N-[3-(3-methyl-benzo[d]isoxazol-6-yl)-2-oxo-oxazolidin-5-ylmethyl]-propionamide]: the MIC in experiment [1] amounted to 2 µg/mL (≈ 6.59 µM); in experiment [2], 2 µg/mL (≈ 6.59 µM); in experiment [3] it was 4 µg/mL (≈ 13.2 µM).

With `COC(=O)NC[C@H]1CN(c2ccc3c(C)noc3c2)C(=O)O1` [Example 3, (S)-[3-(3-methyl-benzo[d]isoxazol-6-yl)-2-oxo-oxazolidin-5-ylmethyl]-carbamic acid methyl ester], the results for the MIC in experiment [1], in experiment [2] and in experiment [3] were 4 µg/mL (≈ 13.1 µM), 2 µg/mL (≈ 6.55 µM) and 4 µg/mL (≈ 13.1 µM), respectively.

Turning to `Cc1noc2cc(N3C[C@H](Cn4ccnn4)OC3=O)ccc12` [Example 4, (R)-3-(3-methyl-benzo[d]isoxazol-6-yl)-5-[1,2,3]triazol-1-ylmethyl-oxazolidin-2-one], the MIC in experiment [1] was 4 µg/mL (≈ 13.4 µM); in experiment [2], 2 µg/mL (≈ 6.68 µM); in experiment [3], 4 µg/mL (≈ 13.4 µM).

Regarding `Cc1noc2cc(N3C[C@H](C(N)=O)OC3=O)ccc12` [Example 6, (R)-3-(3-methyl-benzo[d]isoxazol-6-yl)-2-oxo-oxazolidine-5-carboxylic acid amide], the MIC was found to be 4 µg/mL (≈ 15.3 µM) in experiment [1], 4 µg/mL (≈ 15.3 µM) in experiment [2] and 8 µg/mL (≈ 30.6 µM) in experiment [3].

Regarding `CNC(=O)[C@H]1CN(c2ccc3c(C)noc3c2)C(=O)O1` [Example 7, (R)-3-(3-methyl-benzo[d]isoxazol-6-yl)-2-oxo-oxazolidine-5-carboxylic acid methylamide], the MIC in experiment [1], in experiment [2] and in experiment [3] was 4 µg/mL (≈ 14.5 µM) in each case.

Consider `CONC(=O)[C@H]1CN(c2ccc3c(C)noc3c2)C(=O)O1` [Example 8, (R)-3-(3-methyl-benzo[d]isoxazol-6-yl)-2-oxo-oxazolidine-5-carboxylic acid methoxy-amide], for which the results for the MIC in experiment [1], in experiment [2] and in experiment [3] were 4 µg/mL (≈ 13.7 µM), 8 µg/mL (≈ 27.5 µM) and 4 µg/mL (≈ 13.7 µM), respectively.

Take `CCONC(=O)[C@H]1CN(c2ccc3c(C)noc3c2)C(=O)O1` [Example 9, (R)-3-(3-methyl-benzo[d]isoxazol-6-yl)-2-oxo-oxazolidine-5-carboxylic acid ethoxy-amide]: the results for the MIC in experiment [1], in experiment [2] and in experiment [3] were 4 µg/mL (≈ 13.1 µM), 8 µg/mL (≈ 26.2 µM) and 4 µg/mL (≈ 13.1 µM), respectively.

Values taken from US20090221655A1, “ANTIBACTERIAL AGENTS” (Pitzer, Inc., priority 2006, published 2009).
